Test results reported in patent publication US10875845B2, “Compounds and methods for the treatment of ocular disorders” (Azura Ophthalmics Ltd., priority 2019, dated 2020).

Key:
[1] = test system: Rabbit Cornea Homogenate; experiment: Rabbit Cornea Homogenate Stability Assay (rabbit cornea esterase assay); type: in vitro ADME; details: 37° C.
Protocol: Determining Rabbit Cornea Homogenate stability of the test compounds was performed using HPLC-MS. The assay was performed at two concentrations of Rabbit Cornea Homogenate (0.15 mg/ml and 0.45 mg/ml total protein) so that any hydrolysis observed could be assigned as esterase dependent or not.
Five rabbit corneas (e.g. New Zealand Whites) of approx. 50 mg each were sliced and scraped with a scalpel and tweezers until reduced to small (1-3 mm), thin pieces. These were transferred into a tared vial and accurately weighed, then diluted with 10 volumes aqueous PBS pH7.4
Sample was cooled intermittently on ice and shear homogenized for 3 minutes, then centrifuged for 3 min at 3000 rpm. The supernatant was pipetted off into a vial, and total protein concentration determined at 280 nm. Sample was stored at −78° C.
10 mM Compound stocks were diluted to 100 μM in a 96 deep-well plate: 10 μl of 10 mM Compound stock was added to 990 μl 50 mM HEPES, pH7.5 buffer.
Compounds were further diluted to 10 μM: 100 μl of 100 μM compound was added to 900 μl 50 mM HEPES, pH7.5 buffer.
Esterase homogenate was diluted to 300 ng/μl and 900 ng/μl
A heater shaker was set to 37° C. Into a suitable 96 well plate (Run Plate), 75 μl of 300 or 900 ng/μl esterase homogenate was pipetted into each of the required wells (2 min, 5 min, 10 min, 20 min and 45 min). The plate was sealed and then warmed at 37° C. for 5 min. Another 96 well PCR plate is put on ice (Kill Plate). To this was added 100 μl of MeCN to each well, labelled 0 min, 2 min, 5 min, 10 min, 20 min and 45 min. The plate was covered to minimise evaporation. For the T=0 sample only, to the 100 μl cold MeCN stop solution was added 50 μl of 300 or 900 ng/μl esterase homogenate followed by 50 μl of 10 μM compound solution For the remaining time points, 75 μl of 10 μM compound solution was added to the Run Plate starting from T=45 min row and ending with T=2 min row. At the appropriate time point, 100 μl of the assay mixture was added to the matching kill plate well containing 100 μl of cold MeCN. Samples were analysed as soon as practicable by LCMS (Waters Xevo TQ-S or Micromass Ultima).
Parent conjugate and parent concentrations were determined against appropriate standard response curves and the half-life (T1/2) of the parent conjugate was calculated using the peak area of the parent conjugate at each time point in the linear region of the log—linear plot.

[2] = Aqueous Hydrolysis Stability Assay; type: physicochemical; details: 100 μM in 50 mM HEPES pH 7.5 buffer or 1:1 Acetonitrile:Water, room temperature
Protocol: Determination of aqueous stability of the test compounds was performed using HPLC-MS. A test compound 10 mM stock solution was prepared in DMSO. 10 μl of the DMSO stock solution was dissolved in 990 μl of 50 mM HEPES pH 7.5 buffer or 1:1 (v/v) of Acetonitrile:Water to make a 100 μM solution. Final DMSO concentration was 1%. The solution was kept at room temperature and injected without delay into the LCMS (Waters Xevo TQ-S or Micromass Ultima). Additional injections were performed at appropriate time points.
Half-life (T1/2) of the parent conjugate was calculated using the peak area of the parent conjugate at each time point in the linear region of the log—linear plot.

[3] = Cornea Homogenate Conc 0.15 mg/mL
[4] = Cornea Homogenate Conc 0.45 mg/mL

API Formation rate [1, 3] | Esterase % Lifitegrast formation at 45 min [1, 3] | API Formation rate [1, 4] | Esterase % Lifitegrast formation at 45 min [1, 4] | Hydrolytic % Lifitegrast formation at [time] ([2]; at 142 min) | SMILES | Hydrolytic % Lifitegrast formation at [time] ([2]; at 45 min)
b (API formation rate 0.5-1.0%/min) | B (percent API formation 25% to 50%) | c (API formation rate 1.0-1.5%/min) | B (percent API formation 25% to 50%) | C [142 min] (percent API formation>4%) | CC(=O)OCC(COC(C)=O)COC(=O)OC(C)OC(=O)[C@H](Cc1cccc(S(C)(=O)=O)c1)NC(=O)c1c(Cl)cc2c(c1Cl)CCN(C(=O)c1ccc3ccoc3c1)C2 (stereo partly drawn) [Comp 11, 2-((8S)-10-(2-(benzofuran-6-carbonyl)-5,7-dichloro-1,2,3,4-tetrahydroisoquinolin-6-yl)-5-methyl-8-(3-(methylsulfonyl)benzyl)-3,7,10-trioxo-2,4,6-trioxa-9-azadecyl)propane-1,3-diyl diacetate] | 
d (API formation rate>1.5%/min) | D (percent API formation>75%) | d (API formation rate>1.5%/min) | D (percent API formation>75%) | C [142 min] (percent API formation>4%) | CC(OC(=O)C(C)C)OC(=O)[C@H](Cc1cccc(S(C)(=O)=O)c1)NC(=O)c1c(Cl)cc2c(c1Cl)CCN(C(=O)c1ccc3ccoc3c1)C2 (stereo partly drawn) [Comp 16, 1-(isobutyryloxy)ethyl (2S)-2-(2-(benzofuran-6-carbonyl)-5,7-dichloro-1,2,3,4-tetrahydroisoquinoline-6-carboxamido)-3-(3-(methylsulfonyl)phenyl) propanoate] | 
b (API formation rate 0.5-1.0%/min) | B (percent API formation 25% to 50%) | c (API formation rate 1.0-1.5%/min) | C (percent API formation 51% to 75%) |  | CC(OC(=O)[C@H](Cc1cccc(S(C)(=O)=O)c1)NC(=O)c1c(Cl)cc2c(c1Cl)CCN(C(=O)c1ccc3ccoc3c1)C2)OC(=O)C(C)(C)C (stereo partly drawn) [Comp 17, 1-(((S)-2-(2-(benzofuran-6-carbonyl)-5,7-dichloro-1,2,3,4-tetrahydroisoquinoline-6-carboxamido)-3-(3-(methylsulfonyl)phenyl)propanoyl)oxy)ethyl pivalate] | A [45 min] (percent active pharmaceutical ingredient (API) formation<1.5%)
d (API formation rate>1.5%/min) | C (percent API formation 51% to 75%) | d (API formation rate>1.5%/min) | D (percent API formation>75%) |  | CCC(=O)OC(C)OC(=O)[C@H](Cc1cccc(S(C)(=O)=O)c1)NC(=O)c1c(Cl)cc2c(c1Cl)CCN(C(=O)c1ccc3ccoc3c1)C2 (stereo partly drawn) [Comp 15, 1-(propionyloxy)ethyl (2S)-2-(2-(benzofuran-6-carbonyl)-5,7-dichloro-1,2,3,4-tetrahydroisoquinoline-6-carboxamido)-3-(3-(methylsulfonyl)phenyl) propanoate] | B [45 min] (percent API formation 1.5-4%)

SMILES | API Formation rate [1, 3] | Esterase % Lifitegrast formation at 45 min [1, 3] | API Formation rate [1, 4] | Esterase % Lifitegrast formation at 45 min [1, 4] | Hydrolytic % Lifitegrast formation at [time] ([2]; at 142 min) | Hydrolytic % Lifitegrast formation at [time] ([2]; at 45 min)
CC(OC(=O)OCC(COC(=O)[C@@H](C)O)COC(=O)[C@@H](C)O)OC(=O)[C@H](Cc1cccc(S(C)(=O)=O)c1)NC(=O)c1c(Cl)cc2c(c1Cl)CCN(C(=O)c1ccc3ccoc3c1)C2 (stereo partly drawn) [Comp 13, 2-((8S)-10-(2-(benzofuran-6-carbonyl)-5,7-dichloro-1,2,3,4-tetrahydroisoquinolin-6-yl)-5-methyl-8-(3-(methylsulfonyl)benzyl)-3,7,10-trioxo-2,4,6-trioxa-9-azadecyl)propane-1,3-diyl (2R,2'R)-bis(2-hydroxypropanoate)] | a (API formation rate<0.5%/min) | A (percent active pharmaceutical ingredient (API) formation<25%) | a (API formation rate<0.5%/min) | A (percent active pharmaceutical ingredient (API) formation<25%) |  | 
